Measured values published in US9394295B2, “Antibacterial homopiperidinyl substituted 3,4-dihydro-1H-[1,8]naphthyridinones” (Janssen Sciences Ireland UC, priority 2011, dated 2016).
Converted amounts (≈) assume the structure as drawn.

What was measured:
[1] = Cytotoxicity MTT assay (TOX HELAM); format: cell-based; details: human, HelaM cells, read-out: TOX HELAM (222.125) CC50
Method: Cytotoxicity of the compounds was evaluated using the MTT assay. Human HelaM cells grown in 96-well plates were exposed to serial dilutions of the tested compounds (final volume of 0.2 ml) and incubated for 72 hours at 37° C. and 5% CO2. Inhibitors are typically varied over the range of 25 to 0.8 μM. The final DMSO concentration in the assay is 0.5%. MTT (3-(4,5-Dimethylthiazol-2-yl)-2,5-diphenyltetrazolium bromide, a tetrazole) was added and reduced to purple formazan only in living cells. Solubilization of the formazan crystals was achieved by adding 100 μl 2-propanol. Cell viability was determined by measuring the absorbance of the reduced formazan, giving a purple color, at 540 nm and 690 nm. The absorbance measured at 690 nm was automatically subtracted from the absorbance at 540 nm, to eliminate the effects of non-specific absorption. The percent cytotoxicity achieved by the compounds was calculated according to standard methods. Cytotoxicity is reported as CC50, the concentration that causes a 50% reduction in cell viability.
The results are depicted in the table D2 below (TOX HELAM).

[2] = target: T1, S. aureus ATCC 29213 FabI (Staphylococcus aureus, UniProt Q6GI75); experiment: Staphylococcus aureus FabI enzyme inhibition assay; format: biochemical; details: 30 minutes at room temperature, NADH consumption
T1 sequence (Q6GI75 1-256): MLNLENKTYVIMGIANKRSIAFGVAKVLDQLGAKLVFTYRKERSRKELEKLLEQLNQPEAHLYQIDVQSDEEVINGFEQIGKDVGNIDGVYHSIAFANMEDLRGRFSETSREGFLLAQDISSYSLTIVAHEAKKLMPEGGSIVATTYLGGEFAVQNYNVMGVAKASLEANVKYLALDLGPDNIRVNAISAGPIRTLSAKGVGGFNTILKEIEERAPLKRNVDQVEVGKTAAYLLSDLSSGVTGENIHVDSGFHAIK
Method: FabI enzyme inhibition assays were carried out in half-area, 384-well microtitre plates. Compounds were evaluated in 40-μl assay mixtures containing 100 mM NaADA, pH 6.5 (ADA=N-[2-acetamido]-2iminodiacetic acid), 250 μM crotonoyl-CoA, 625 μM NADH and 50 μg/ml S. aureus ATCC 29213 FabI Inhibitors were typically varied over the range of 50 to 0.39 μM. The reaction mixtures were incubated for 30 minutes at room temperature and the reaction was stopped by adding 200 mM Tris buffer (pH 9.0) to create a pH-shift. The consumption of NADH was monitored by measuring the change in absorbance at […]. By comparing sample readings to those of negative (absence of compound) and positive (absence of enzyme) controls, the percent inhibition of enzymatic activity of the compounds was determined. A best-fit curve is fitted by a minimum of squares method. From this an IC50-value (expressed in μg/ml), resulting in 50% inhibition of enzymatic activity, was obtained.

S. aureus = experiment: Antibacterial susceptibility testing: IC90 determination with 10% human serum (STA + 10% HS); format: cell-based; details: Staphylococcus aureus; S. aureus with human serum at final concentration of 10%; read-out: STA + 10% HS (361.169) IC90
Method: (§1) The following bacteria were used: Staphylococcus aureus ATCC 29213, methicillin-resistant Staphylococcus aureus (MRSA) ATCC 700788 and Escherichia coli ATCC 35218. The bacteria used in this study were grown overnight in flasks containing 100 ml Mueller-Hinton broth (Difco cat. nr. 0757-17) in sterile de-ionized water, with shaking, at 37° C. Stocks were store at −70° C. until use.
(§2) Bacteria were incubated on a tryptic soy agar plate containing 5% sheep blood (Becton Dickinson cat. nr. 254053) for 18-24 hours at 35° C. in aerobic conditions (first passage). For the second passage, fresh Mueller-Hinton broth is inoculated with 5-10 colonies and grown overnight at 35° C. until turbidity (reaching log-phase) in aerobic conditions is reached. The bacterial suspension is then adjusted to 0.5 McFarland density and further diluted 1:100 in Mueller Hinton broth medium. This is used as inoculum.
(§3) MIC assays were performed by the broth microdilution method in a 96-well format (flat-bottom microtitre plates) with a final volume of 0.1 ml Mueller Hinton broth containing two-fold serial dilutions of compounds and inoculated with 5×10^5 CFU/ml of bacteria (standard inoculum size according to CLSI guidelines). Inhibitors are typically varied over the range of 63 to 0.49 μM. The final DMSO concentration in the assay was 1.25% (maximum tolerable DMSO concentration=6%). In the assays where the effect of human serum on the activity of the compounds against S. aureus was tested, human serum was added at a final concentration of 10%. The plates were incubated at 35° C. for 16-20 hours. At the end of incubation the bacterial growth was quantified fluorometrically. For this, resazurin was added to all wells and the plates were re-incubated. The incubation time is dependent on the type of bacteria. A change in color from blue to pink indicated the growth of bacteria. The fluorescence was read in computer-controlled fluorometer (Fluoroskan Ascent FL, Labsystems) at an excitation wavelength 540 nm and an emission wavelength of 590 nm. The % growth inhibition achieved by the compounds was calculated according to standard methods. The IC90 (expressed in μg/ml) was defined as the 90% inhibitory concentration for bacterial growth. A panel of reference compounds were simultaneously tested for QC approval.
The results are depicted in the table D2 below (STA+10% HS).

[3] = tested on: Staphylococcus aureus ATCC 29213; experiment: Antibacterial susceptibility testing: IC90 determination (STA); format: cell-based; details: ATCC29213, S. aureus ATCC 29213, 90% inhibitory concentration for bacterial growth, read-out: STA (361.159) IC90
Method: as §1, §2, §3

O=C1CCc2cc(/C=C/C(=O)N3CCCC(Cc4ccccc4)CC3)cnc2N1 (stereo not shown) [Co. No. 3]
CC50 at 72 h [1]: > 9.78 µg/mL | IC50 [2]: 976 nM | IC90 (S. aureus): 11.2 µg/mL | IC90 [3]: 3.94 µg/mL (≈ 10.1 µM)

O=C1CCc2cc(/C=C/C(=O)N3CCCC(c4ccccc4)CC3)cnc2N1 (stereo not shown) [Co. No. 4]
CC50 at 72 h [1]: > 9.43 µg/mL | IC50 [2]: 666 nM | IC90 (S. aureus): 3.54 µg/mL | IC90 [3]: 3.42 µg/mL (≈ 9.11 µM)

O=C1CCc2cc(/C=C/C(=O)N3CC=C(Cc4ccccc4)CCC3)cnc2N1 [Co. No. 5]
CC50 at 72 h [1]: > 9.73 µg/mL | IC90 (S. aureus): 10.9 µg/mL | IC90 [3]: 4.66 µg/mL (≈ 12 µM)

COc1cccc(C2=CCN(C(=O)/C=C/c3cnc4c(c3)CCC(=O)N4)CCC2)c1 [Co. No. 6]
CC50 at 72 h [1]: > 10.1 µg/mL | IC90 (S. aureus): 6.32 µg/mL | IC90 [3]: 3.21 µg/mL (≈ 7.96 µM)

Cc1ccccc1C1=CCN(C(=O)/C=C/c2cnc3c(c2)CCC(=O)N3)CCC1 [Co. No. 7]
CC50 at 72 h [1]: > 9.73 µg/mL | IC50 [2]: 1140 nM | IC90 (S. aureus): 2.97 µg/mL | IC90 [3]: 1.47 µg/mL (≈ 3.79 µM)

Cc1ccccc1C1=CCCN(C(=O)/C=C/c2cnc3c(c2)CCC(=O)N3)CC1 [Co. No. 8]
CC50 at 72 h [1]: 9.3 µg/mL (≈ 24 µM) | IC50 [2]: 852 nM | IC90 (S. aureus): 0.84 µg/mL | IC90 [3]: 0.69 µg/mL (≈ 1.78 µM)

COc1ccccc1C1=CCN(C(=O)/C=C/c2cnc3c(c2)CCC(=O)N3)CCC1 [Co. No. 9]
CC50 at 72 h [1]: > 10.1 µg/mL | IC50 [2]: 967 nM | IC90 (S. aureus): 1.48 µg/mL | IC90 [3]: 0.99 µg/mL (≈ 2.45 µM)

O=C1CCc2cc(/C=C/C(=O)N3CC=C(c4cccc(Cl)c4)CCC3)cnc2N1 [Co. No. 12]
CC50 at 72 h [1]: 8.23 µg/mL (≈ 20.2 µM) | IC50 [2]: 1250 nM | IC90 (S. aureus): 4.37 µg/mL | IC90 [3]: 0.71 µg/mL (≈ 1.74 µM)

COc1ccc(F)cc1C1=CCN(C(=O)/C=C/c2cnc3c(c2)CCC(=O)N3)CCC1 [Co. No. 13]
CC50 at 72 h [1]: > 10.6 µg/mL | IC50 [2]: 1380 nM | IC90 (S. aureus): 3.05 µg/mL | IC90 [3]: 1.43 µg/mL (≈ 3.39 µM)

Cc1ccc(F)cc1C1=CCCN(C(=O)/C=C/c2cnc3c(c2)CCC(=O)N3)CC1 [Co. No. 15]
CC50 at 72 h [1]: 8.57 µg/mL (≈ 21.1 µM) | IC50 [2]: 789 nM | IC90 (S. aureus): 1.02 µg/mL | IC90 [3]: 0.39 µg/mL (≈ 0.962 µM)

Cc1ccc(C)c(C2=CCN(C(=O)/C=C/c3cnc4c(c3)CCC(=O)N4)CCC2)c1 [Co. No. 16]
CC50 at 72 h [1]: 9.09 µg/mL (≈ 22.6 µM) | IC50 [2]: 946 nM | IC90 (S. aureus): 3.01 µg/mL | IC90 [3]: 1.49 µg/mL (≈ 3.71 µM)

Cc1ccc(C)c(C2=CCCN(C(=O)/C=C/c3cnc4c(c3)CCC(=O)N4)CC2)c1 [Co. No. 17]
CC50 at 72 h [1]: 4.11 µg/mL (≈ 10.2 µM) | IC50 [2]: 946 nM | IC90 (S. aureus): 0.72 µg/mL | IC90 [3]: 0.33 µg/mL (≈ 0.822 µM)

O=C1CCc2cc(/C=C/C(=O)N3CC=C(c4ccc(Cl)cc4)CCC3)cnc2N1 [Co. No. 18]
CC50 at 72 h [1]: 6.85 µg/mL (≈ 16.8 µM) | IC50 [2]: 1420 nM | IC90 (S. aureus): 5.08 µg/mL | IC90 [3]: 1.52 µg/mL (≈ 3.73 µM)

O=C1CCc2cc(/C=C/C(=O)N3CC=C(c4ccccc4Cl)CCC3)cnc2N1 [Co. No. 20]
CC50 at 72 h [1]: 8.52 µg/mL (≈ 20.9 µM) | IC50 [2]: 785 nM | IC90 (S. aureus): 1.15 µg/mL | IC90 [3]: 0.63 µg/mL (≈ 1.54 µM)

O=C1CCc2cc(/C=C/C(=O)N3CCC=C(c4ccccc4Cl)CC3)cnc2N1 [Co. No. 21]
CC50 at 72 h [1]: 9.24 µg/mL (≈ 22.7 µM) | IC50 [2]: 932 nM | IC90 (S. aureus): 0.36 µg/mL | IC90 [3]: < 0.2 µg/mL

O=C1CCc2cc(/C=C/C(=O)N3CC=C(c4ccccc4F)CCC3)cnc2N1 [Co. No. 22]
CC50 at 72 h [1]: 12.5 µg/mL (≈ 32 µM) | IC50 [2]: 664 nM | IC90 (S. aureus): 1.03 µg/mL | IC90 [3]: 0.59 µg/mL (≈ 1.51 µM)

O=C1CCc2cc(/C=C/C(=O)N3CCC=C(c4ccccc4F)CC3)cnc2N1 [Co. No. 23]
CC50 at 72 h [1]: > 9.83 µg/mL | IC50 [2]: 1070 nM | IC90 (S. aureus): 0.35 µg/mL | IC90 [3]: 0.18 µg/mL (≈ 0.46 µM)

O=C1CCc2cc(/C=C/C(=O)N3CCC=C(c4ccc(Cl)cc4)CC3)cnc2N1 [Co. No. 24]
CC50 at 72 h [1]: 7.25 µg/mL (≈ 17.8 µM) | IC50 [2]: 1910 nM | IC90 (S. aureus): 6.17 µg/mL | IC90 [3]: 1.52 µg/mL (≈ 3.73 µM)

COc1ccc(C2=CCN(C(=O)/C=C/c3cnc4c(c3)CCC(=O)N4)CCC2)cc1 [Co. No. 25]
CC50 at 72 h [1]: > 10.1 µg/mL | IC50 [2]: 2130 nM | IC90 (S. aureus): 5.83 µg/mL | IC90 [3]: 3.06 µg/mL (≈ 7.58 µM)

COc1ccc(C2=CCCN(C(=O)/C=C/c3cnc4c(c3)CCC(=O)N4)CC2)cc1 [Co. No. 26]
CC50 at 72 h [1]: > 10.1 µg/mL | IC50 [2]: 1660 nM | IC90 (S. aureus): 2.86 µg/mL | IC90 [3]: 1.46 µg/mL (≈ 3.62 µM)

CC1(c2ccccc2)CCCN(C(=O)/C=C/c2cnc3c(c2)CCC(=O)N3)CC1 (stereo not shown) [Co. No. 28]
CC50 at 72 h [1]: > 9.78 µg/mL | IC50 [2]: ~1670 nM | IC90 (S. aureus): 7.42 µg/mL | IC90 [3]: 2.4 µg/mL (≈ 6.16 µM)

COc1cccc(C2=CCCN(C(=O)/C=C/c3cnc4c(c3)CCC(=O)N4)CC2)c1 [Co. No. 29]
CC50 at 72 h [1]: > 10.6 µg/mL | IC50 [2]: 2400 nM | IC90 (S. aureus): 1.66 µg/mL | IC90 [3]: 0.78 µg/mL (≈ 1.93 µM)

COc1cccc(F)c1C1=CCCN(C(=O)/C=C/c2cnc3c(c2)CCC(=O)N3)CC1 [Co. No. 31]
CC50 at 72 h [1]: > 10.6 µg/mL | IC50 [2]: 1610 nM | IC90 (S. aureus): 0.26 µg/mL | IC90 [3]: 0.21 µg/mL (≈ 0.498 µM)

O=C1CCc2cc(/C=C/C(=O)N3CCc4ccccc4CC3)cnc2N1 [Co. No. 32]
CC50 at 72 h [1]: > 8.73 µg/mL | IC50 [2]: 1530 nM | IC90 (S. aureus): 20.2 µg/mL | IC90 [3]: 21.4 µg/mL (≈ 61.7 µM)

O=C1CCc2cc(/C=C/C(=O)N3CC=C(c4ccccc4)CCC3)cnc2N1 [compound 1]
IC50 [2]: 964 nM

O=C1CCc2cc(/C=C/C(=O)N3CCCC(n4cccn4)CC3)cnc2N1 (stereo not shown) [compound 49]
IC50 [2]: 4570 nM

O=C1CCc2cc(/C=C/C(=O)N3CCCC(n4ccnn4)CC3)cnc2N1 (stereo not shown) [compound 50]
IC50 [2]: 2180 nM
